Assay results: patent US20200297601A1, “COMPOSITION FOR SKIN MOISTURIZATION OR SKIN WHITENING, CONTAINING PENTACYCLIC TRITERPENE CAFFEIC ACID ESTERS” (AMOREPACIFIC CORPORATION, priority 2016, published 2020)

Tested on: filaggrin
Test: Immunofluorescent staining and imaging of filaggrin in artificial skin
Assay type: cell-based
Settings: artificial skin (AmoreReskin) surface treated for 4 days, FIG. 3
Method: The skin moisturizing effect of Example 1 and Example 4 was evaluated by immunofluorescent staining and imaging of filaggrin which is known as an important skin moisturizing factor.
The surface of artificial skin (AmoreReskin™) was treated with 2 ppm ceramide PC 104, Example 1 and Example 4 for 4 days and then immunofluorescent staining was conducted. The immunofluorescent staining was conducted as follows.
i. Artificial skin is immersed in OCT solution (optimal cutting temperature, Tissue Tek) and stored at −70° C.
ii. The artificial skin is prepared into 10-μm thick sections using a cryotome and fixed on a slide.
iii. Lines are drawn around the artificial skin sections using a PAP pen.
iv. The slide is dried at room temperature for at least 8 hours.
v. The artificial skin sections are washed with PBS and […] in OCT solution.
vi. The artificial skin sections are treated with a blocking solution (1% BSA in PBS) for 30 minutes.
vii. The sections are treated with anti-filaggrin antibody (ab24584, Abcam) for 2 hours.
viii. The sections are treated with Texas Red anti-rabbit antibody (T6391, Life technologies) diluted to 1:200 in a blocking solution for 1 hour.
ix. The sections are stained with DAPI (4′,6-diamidino-2-phenylindole) for 5 minutes.
x. The sections are washed with PBS 3 times.
xi. […]

How did the “filaggrin protein (immunofluorescence)” value turn out when “3β,23,28-Trihydroxy-12-oleanene 23-caffeate [Example 1]” was run?
The value was “significantly increased”.
